# Laboratory results from patent US20070072938A1, “DRONABINOL TREATMENT OF DELAYED CHEMOTHERAPY-INDUCED NAUSEA AND VOMITING” (priority 2005, published 2007).
# Marks after values point to notes of the source that are not given here.
# Key:
# [1] = tested on: patients receiving moderately to highly emetogenic chemotherapy; test: Randomized, double-blind, placebo-controlled study: antiemetic efficacy in delayed CINV (Days 2-5); assay type: in vivo, human; conditions: for Absence of nausea / Absence of nausea (frequency/n) / Mean vomiting/retching / Total response (frequency/n) / Mean nausea intensity: Days 2-5; for Mean nausea intensity: 100-mm VAS; for Total response: Days 2-5 LOCF end point, TR = nausea <5 mm VAS, no vomiting/retching, no rescue; for Complete Response: No / Complete Response: Yes: LOCF End Point (Days 2-5)
# Procedure: (§1) A randomized, double-blind, placebo-controlled, parallel-group study evaluating the antiemetic efficacy and tolerability of oral dronabinol alone, dronabinol in combination with ondansetron, ondansetron alone, and placebo in patients receiving moderate to high emetogenic chemotherapy was conducted. All patients received dexamethasone 20 mg and ondansetron 16 mg intravenously prechemotherapy. […] On Day 2, placebo or fixed doses of 10 mg dronabinol, 16 mg ondansetron, or dronabinol plus ondansetron were administered. On Days 3-5, patients received placebo, flexible doses of 10-20 mg dronabinol, 8-16 mg ondansetron, or dronabinol plus ondansetron. Rescue antiemetics were permitted after using the maximum dose of medication. The primary efficacy variable was total response (“TR”) to study medication (TR=nausea intensity<5 mm on a 100-mm visual analog scale, no vomiting/retching, no rescue antiemetic). Secondary efficacy parameters included nausea status and intensity, as well as episodes of vomiting/retching. […] TR and presence/absence of nausea were evaluated using the Fisher's Exact Test. Tolerability was assessed by physical examination and adverse events.
# All efficacy analyses were based on the ITT population.
# This was a randomized, double-blind, placebo-controlled, parallel-group, 5-day study to evaluate the antiemetic efficacy and safety of oral dronabinol (sole under the trade name, Marinol®) alone, and in combination with ondansetron (sole under the trade name, Zofran®), versus ondansetron alone in patients receiving moderately to highly emetogenic chemotherapy. The investigator obtained written approval from the Institutional Review Board, and the study was conducted in accordance with the Declaration of Helsinki.
# Patients who entered the study were to undergo cancer chemotherapy with moderately to highly emetogenic agents on Day 1 when they were randomized into 1 of 4 treatment groups: dronabinol alone (Group Dronabinol), ondansetron alone (Group Ondansetron), combination therapy with dronabinol and ondansetron (Group Dronabinol/Ondansetron), or placebo (Group Placebo). All patients received a standard prechemotherapy regimen of dexamethasone (20 mg) and ondansetron (16 mg). […] Placebo patients received matching placebo prechemotherapy and postchemotherapy on Day 1.
# (§2) A kit of open-label antiemetics (metoclopramide 10 mg, prochlorperazine 5 mg, and prochlorperazine 25-mg suppository) was provided to the study participants for use on Days 1 through 8 as rescue medications to treat intolerable nausea and vomiting and/or retching after using the maximum dose of study medication at any dosing interval. Patients recorded the use of rescue medication and returned the unused portion of the kit.
# Each morning, patients recorded the number of vomiting and/or retching episodes in the previous day. In addition, the patient recorded the daily presence or absence of nausea and its duration.
# The primary efficacy measure was the incidence of total response to treatment following administration of moderately to highly emetogenic chemotherapeutic agents. Total response was defined as no vomiting and/or retching, intensity of nausea <5 mm on a 100-mm Visual Analog Scale (VAS scale 0-100 mm; 0 mm=no nausea; 100 mm=intractable nausea), and no use of rescue medication.
# The secondary efficacy analysis included patients who took rescue medication. However, analyses were conducted only on data collected before the use of any rescue medication. The secondary efficacy assessments were complete response, presence or absence of nausea, episodes of vomiting and/or retching, duration of nausea and vomiting and/or retching, intensity of nausea measured by VAS, ECOG (wellness), and QoL. Complete response for vomiting/retching was defined as no vomiting/retching, intensity of nausea of ≦30 mm on the VAS, and no use of rescue therapy.
# [2] = tested on: patients receiving moderately to highly emetogenic chemotherapy; test: Safety and tolerability: treatment-emergent adverse events (safety population)
# Procedure: as §1
# AEs and concomitant medications were also assessed.
# [3] = tested on: patients receiving moderately to highly emetogenic chemotherapy; test: ECOG (wellness) and McCorkle Symptom Distress Scale (QoL) assessment; assay type: in vivo, human
# Procedure: The secondary efficacy analysis included patients who took rescue medication. However, analyses were conducted only on data collected before the use of any rescue medication. The secondary efficacy assessments were complete response, presence or absence of nausea, episodes of vomiting and/or retching, duration of nausea and vomiting and/or retching, intensity of nausea measured by VAS, ECOG (wellness), and QoL. Complete response for vomiting/retching was defined as no vomiting/retching, intensity of nausea of ≦30 mm on the VAS, and no use of rescue therapy. The presence or absence of nausea, episodes of vomiting and/or retching, and duration of nausea and vomiting and/or retching were assessed from daily patient telephone diary entries completed each morning to report the previous day. The patient was prompted through the Interactive Voice Response System to use the standard VAS to assess nausea intensity. The ECOG (wellness) assessment was clinician administered at screening and again on Day 6, Day 7, or Day 8 (or early termination). The possible range of the ECOG assessment was 0 to 4, where 0 was normal activity with no limitations and 4 was very sick, rarely out of bed.
# The McCorkle Symptom Distress Scale (QoL assessment) evaluation was conducted on Day 1 (postchemotherapy) and again on Day 6, Day 7, or Day 8 (or early termination). […]
# [4] = tested on: patients receiving moderately to highly emetogenic chemotherapy; test: Other analyses: rescue antiemetic use and compliance with study medication; assay type: in vivo, human; conditions: for patients who required rescue medicine: Day 5; for Rescue antiemetics used (patients): whole study
# Procedure: as §2
# For the primary efficacy parameter, a logistic regression model was used for the primary analysis and a Cochran-Mantel-Haenszel (“CMH”) test stratified by pooled center was performed as a supportive analysis. Continuous secondary efficacy parameters were analyzed for all pairwise comparisons using a 2-way analysis of variance (“ANOVA”) with treatment and pooled center as fixed factors. For data that was not normally distributed, data were ranked, and an ANOVA was performed on the ranked scores. Categorical secondary efficacy parameters were analyzed for all pairwise comparisons using the CMH test stratified by pooled center. No adjustment for multiple comparisons was performed for the secondary efficacy parameters. No interactions were examined for the secondary efficacy parameters. Compliance with study medication was defined as taking all doses of supplied medication and was measured throughout the trial.
compound,measurement,setting,value
"CCCCCc1cc(O)c2c(c1)OC(C)(C)[C@@H]1CCC(C)=C[C@@H]21 [Dronabinol, delta-9-tetrahydrocannabinol]",Duration of nausea: 3-6 h,[1]; Day 2,0 n (%)
same,Duration of nausea: 6-8 h,[1]; Day 2,1 (8) n (%)
same,Duration of nausea: 8-10 h,[1]; Day 2,0 n (%)
same,Duration of nausea: <3 h,[1]; Day 2,1 (8) n (%)
same,Duration of nausea: >10 h,[1]; Day 2,2 (15) n (%)
same,Duration of nausea: No nausea reported,[1]; Day 2,9 (69) n (%)
same,Observed Duration of Vomiting/Retching (mean ± SD),[1]; Day 2,0.00 ± 0.00 h
same,Duration of nausea: 3-6 h,[1]; Day 3,0 n (%)
same,Duration of nausea: 6-8 h,[1]; Day 3,2 (17) n (%)
same,Duration of nausea: 8-10 h,[1]; Day 3,0 n (%)
same,Duration of nausea: <3 h,[1]; Day 3,2 (17) n (%)
same,Duration of nausea: >10 h,[1]; Day 3,1 (8) n (%)
same,Duration of nausea: No nausea reported,[1]; Day 3,7 (58) n (%)
same,Observed Duration of Vomiting/Retching (mean ± SD),[1]; Day 3,0.41 ± 1.36 h
same,Duration of nausea: 3-6 h,[1]; Day 4,0 n (%)
same,Duration of nausea: 6-8 h,[1]; Day 4,0 n (%)
same,Duration of nausea: 8-10 h,[1]; Day 4,0 n (%)
same,Duration of nausea: <3 h,[1]; Day 4,1 (11) n (%)
same,Duration of nausea: >10 h,[1]; Day 4,0 n (%)
same,Duration of nausea: No nausea reported,[1]; Day 4,8 (89) n (%)
same,Observed Duration of Vomiting/Retching (mean ± SD),[1]; Day 4,0.00 ± 0.01 h
same,Duration of nausea: 3-6 h,[1]; Day 5,0 n (%)
same,Duration of nausea: 6-8 h,[1]; Day 5,0 n (%)
same,Duration of nausea: 8-10 h,[1]; Day 5,0 n (%)
same,Duration of nausea: <3 h,[1]; Day 5,1 (13) n (%)
same,Duration of nausea: >10 h,[1]; Day 5,0 n (%)
same,Duration of nausea: No nausea reported,[1]; Day 5,7 (88) n (%)
same,Observed Duration of Vomiting/Retching (mean ± SD),[1]; Day 5,0.00 ± 0.00 h
same,Absence of nausea,[1],71^† %
same,Absence of nausea (frequency/n),[1],(10/14)
same,Mean vomiting/retching,[1],0.2 episodes/day
same,Total response (frequency/n),[1],(7/13)
same,Mean nausea intensity,[1],10.1^† mm
same,Absence of nausea,[1]; listed as dronabinol,71%
same,Total response,[1],54%
same,Complete Response: No,[1],5 (38) n (%)
same,Complete Response: Yes,[1],8 (62) n (%)
same,antiemetic effect for delayed CINV,[1]; result in words,comparable with ondansetron
same,Adverse event: Asthenia,[2]; Safety Population,2 (12) n (%)
same,Adverse event: Chest pain,[2]; Safety Population,1 (6) n (%)
same,Adverse event: Constipation,[2]; Safety Population,1 (6) n (%)
same,Adverse event: Diarrhea,[2]; Safety Population,4 (24) n (%)
same,Adverse event: Dizziness,[2]; Safety Population,1 (6) n (%)
same,Adverse event: Fatigue,[2]; Safety Population,2 (12) n (%)
same,Adverse event: Headache,[2]; Safety Population,0 n (%)
same,Adverse event: Hyperglycemia,[2]; Safety Population,0 n (%)
same,Adverse event: Insomnia,[2]; Safety Population,0 n (%)
same,Patients who permanently discontinued study medication because of a TEAE,[2]; Safety Population,1 (6) n (%)
same,Patients with at least 1 SAE,[2]; Safety Population,2 (12) n (%)
same,Patients with at least 1 TEAE,[2]; Safety Population,14 (82) n (%)
same,Patients with at least 1 TEAE leading to dose reduction,[2]; Safety Population,0 n (%)
same,Patients with at least 1 severe TEAE,[2]; Safety Population,2 (12) n (%)
same,incidence of CNS-related events,[2]; result in words,low and few CNS-related AEs
same,tolerability,[2]; result in words,well tolerated
same,"McCorkle Symptom Distress Scale (QoL), mean change from baseline","[3]; Day 1 versus Day 6, 7 or 8, lower values = less distress",−2.0±4.2
same,ECOG (wellness) change after treatment,[3]; result in words,Shifts in ECOG from 1 to 0 (improvement)
same,patients who required rescue medicine,[4],12%
same,Rescue antiemetics used (patients),[4],24%
"Cc1nccn1CC1CCc2c(c3ccccc3n2C)C1=O (stereo not drawn) [Ondansetron, ondansetron]",Duration of nausea: 3-6 h,[1]; Day 2,0 n (%)
same,Duration of nausea: 6-8 h,[1]; Day 2,0 n (%)
same,Duration of nausea: 8-10 h,[1]; Day 2,0 n (%)
same,Duration of nausea: <3 h,[1]; Day 2,4 (33) n (%)
same,Duration of nausea: >10 h,[1]; Day 2,1 (8) n (%)
same,Duration of nausea: No nausea reported,[1]; Day 2,7 (58) n (%)
same,Observed Duration of Vomiting/Retching (mean ± SD),[1]; Day 2,2.00 ± 6.93 h
same,Duration of nausea: 3-6 h,[1]; Day 3,0 n (%)
same,Duration of nausea: 6-8 h,[1]; Day 3,1 (10) n (%)
same,Duration of nausea: 8-10 h,[1]; Day 3,0 n (%)
same,Duration of nausea: <3 h,[1]; Day 3,1 (10) n (%)
same,Duration of nausea: >10 h,[1]; Day 3,0 n (%)
same,Duration of nausea: No nausea reported,[1]; Day 3,8 (80) n (%)
same,Observed Duration of Vomiting/Retching (mean ± SD),[1]; Day 3,0.06 ± 0.17 h
same,Duration of nausea: 3-6 h,[1]; Day 4,0 n (%)
same,Duration of nausea: 6-8 h,[1]; Day 4,0 n (%)
same,Duration of nausea: 8-10 h,[1]; Day 4,0 n (%)
same,Duration of nausea: <3 h,[1]; Day 4,1 (13) n (%)
same,Duration of nausea: >10 h,[1]; Day 4,0 n (%)
same,Duration of nausea: No nausea reported,[1]; Day 4,7 (88) n (%)
same,Observed Duration of Vomiting/Retching (mean ± SD),[1]; Day 4,0.00 ± 0.00 h
same,Duration of nausea: 3-6 h,[1]; Day 5,1 (14) n (%)
same,Duration of nausea: 6-8 h,[1]; Day 5,0 n (%)
same,Duration of nausea: 8-10 h,[1]; Day 5,0 n (%)
same,Duration of nausea: <3 h,[1]; Day 5,0 n (%)
same,Duration of nausea: >10 h,[1]; Day 5,0 n (%)
same,Duration of nausea: No nausea reported,[1]; Day 5,6 (86) n (%)
same,Observed Duration of Vomiting/Retching (mean ± SD),[1]; Day 5,0.02 ± 0.06 h
same,Absence of nausea,[1],64^† %
same,Absence of nausea (frequency/n),[1],(9/14)
same,Mean vomiting/retching,[1],1.3 episodes/day
same,Total response (frequency/n),[1],(7/12)
same,Mean nausea intensity,[1],24.0^† mm
same,Absence of nausea,[1]; listed as ondansetron,64%
same,Total response,[1],58%
same,Complete Response: No,[1],5 (42) n (%)
same,Complete Response: Yes,[1],7 (58)* n (%)
same,Adverse event: Asthenia,"[2]; human, in vivo",1 (6) n (%)
same,Adverse event: Chest pain,"[2]; human, in vivo",2 (13) n (%)
same,Adverse event: Constipation,"[2]; human, in vivo",2 (13) n (%)
same,Adverse event: Diarrhea,"[2]; human, in vivo",1 (6) n (%)
same,Adverse event: Dizziness,"[2]; human, in vivo",1 (6) n (%)
same,Adverse event: Fatigue,"[2]; human, in vivo",1 (6) n (%)
same,Adverse event: Headache,"[2]; human, in vivo",3 (19) n (%)
same,Adverse event: Hyperglycemia,"[2]; human, in vivo",2 (13) n (%)
same,Adverse event: Insomnia,"[2]; human, in vivo",2 (13) n (%)
same,Patients who permanently discontinued study medication because of a TEAE,"[2]; human, in vivo",2 (13) n (%)
same,Patients with at least 1 SAE,"[2]; human, in vivo",1 (6) n (%)
same,Patients with at least 1 TEAE,"[2]; human, in vivo",14 (88) n (%)
same,Patients with at least 1 TEAE leading to dose reduction,"[2]; human, in vivo",0 n (%)
same,Patients with at least 1 severe TEAE,"[2]; human, in vivo",1 (6) n (%)
same,patients who required rescue medicine,[4],25%
same,Rescue antiemetics used (patients),[4],31%
